PMC10447463, “Data-mining unveils structure–property–activity correlation of viral infectivity enhancing self-assembling peptides” (Nature Communications, 2023)
Where two headings read alike, the source gives them in different places.

How the values were obtained:
[1] = assay type: physicochemical; conditions: for ThT Cat. / ThT-Fluorescence (categorical): ThT-active if fluorescence at least twice the control
Outline: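 Fibrils (1 mg/mL solution) were mixed with 50 µM ThT in PBS for 15 min at RT, and fluorescence was read at λex 440/λem 488 nm against a PBS blank, as a triplicate mean ± SD. Zeta potential came from electrophoretic mobility (Smoluchowski) after 1 d aggregation at 1 mg/mL in PBS pH 7.4, diluted into 1 mM KCl.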

[2] = assay type: physicochemical; parameters: key to Fibril / Fibril Formation / TEM 2cat / Fibril: 1 = fibrils present; 0 non-fibrillar structures; conditions: for Fibril / Fibril / Fibril Formation: TEM; for Fibril / Fibril Formation: 1 mg/mL, uranyl acetate stain, qualitative
[3] = FigS12 panel A, fibril category by TEM
[4] = 1 = fibrils present, 0 = non-fibrillar
[5] = 1 = fibrils present, 0 = non-fibrillar structures
[6] = ThT fluorescence category, 1 if Rel. ThT >2
[7] = category: fibrils present or non-fibrillar

Q: With RPRGLLLGNLR as the substance, how does the “Tht category (> 2 to blank = +)” value ([1]; Fig S10 panel D) read?
A: 0 (ThT-inactive (N-Fold <2))

Q: What about the “Tht category (> 2 to blank = +)” value ([1]; FigS12 panel A) of the same substance?
A: 0 (ThT-inactive (N-Fold <2))

Q: And the “ThT Cat,” value ([1]; FigS12 panel B)?
A: 0 (ThT-inactive (N-Fold <2))

Q: And the “ThT Cat,” value ([1]; ThT category, 1 if Rel. ThT >2)?
A: 0 (ThT-inactive (N-Fold <2))

Q: And the “ThT Cat.” value ([1]; ThT category, 1 if Rel. ThT >2)?
A: 0 (ThT-inactive (N-Fold <2))

Q: And the “ThT Cat. / ThT-Fluorescence (categorical)” value (shortened to “ThT Cat. / ThT-Fluorescence”) [1]?
A: 0 (ThT-inactive (N-Fold <2))

Q: And the “TEM 2cat” value ([2]; Fig S10 panel D)?
A: 0

Q: And the “TEM 2cat” value [2, 3]?
A: 0

Q: And the Fibril ([2]; FigS12 panel B)?
A: 0

Q: And the “Fibril / Fibril Formation” value [2]?
A: 0

Q: What about the Fibril [2, 4] of the same substance?
A: 0

Q: What about the Fibril [2, 5] of the same substance?
A: 0

Q: What does the source list for KNDKND?
A: Tht category (> 2 to blank = +) ([1]; Fig S10 panel D): 0 (ThT-inactive (N-Fold <2)); Tht category (> 2 to blank = +) ([1]; FigS12 panel A): 0 (ThT-inactive (N-Fold <2)); ThT Cat, ([1]; FigS12 panel B): 0 (ThT-inactive (N-Fold <2)); ThT Cat, ([1]; ThT category, 1 if Rel. ThT >2): 0 (ThT-inactive (N-Fold <2)); ThT Cat. ([1]; ThT category, 1 if Rel. ThT >2): 0 (ThT-inactive (N-Fold <2)); ThT Cat. / ThT-Fluorescence (categorical) [1]: 0 (ThT-inactive (N-Fold <2)); TEM 2cat ([2]; Fig S10 panel D): 0; TEM 2cat [2, 3]: 0; Fibril ([2]; FigS12 panel B): 0; Fibril / Fibril Formation [2]: 0; Fibril [2, 4]: 0; Fibril [2, 5]: 0

Q: For KIKIKIKIYYYY, which “Tht category (> 2 to blank = +)” value ([1]; Fig S10 panel D) is on record?
A: 0 (ThT-inactive (N-Fold <2))

Q: What about the “ThT Cat,” value ([1]; ThT category, 1 if Rel. ThT >2) of the same substance?
A: 0 (ThT-inactive (N-Fold <2))

Q: And the “ThT Cat.” value [1, 6]?
A: 0 (ThT-inactive (N-Fold <2))

Q: What about the “ThT Cat. / ThT-Fluorescence” value [1] of the same substance?
A: 0 (ThT-inactive (N-Fold <2))

Q: And the “TEM 2cat” value ([2]; Fig S10 panel D)?
A: 0

Q: And the “Fibril / Fibril Formation” value [2]?
A: 0

Q: What about the Fibril [2, 4] of the same substance?
A: 0

Q: What about the Fibril [2, 5] of the same substance?
A: 0

Q: And the “TEM 2cat” value [2, 7]?
A: 0

Q: Which “Tht category (> 2 to blank = +)” value ([1]; Fig S10 panel D) does the source give for CEFEFQF here?
A: 0 (ThT-inactive (N-Fold <2))

Q: And the “Tht category (> 2 to blank = +)” value ([1]; FigS12 panel A)?
A: 0 (ThT-inactive (N-Fold <2))

Q: And the “ThT Cat,” value ([1]; FigS12 panel B)?
A: 0 (ThT-inactive (N-Fold <2))

Q: And the “ThT Cat,” value ([1]; ThT category, 1 if Rel. ThT >2)?
A: 0 (ThT-inactive (N-Fold <2))

Q: And the “ThT Cat.” value [1, 6]?
A: 0 (ThT-inactive (N-Fold <2))

Q: And the “ThT Cat. / ThT-Fluorescence” value [1]?
A: 0 (ThT-inactive (N-Fold <2))

Q: And the “TEM 2cat” value ([2]; Fig S10 panel D)?
A: 1

Q: And the “TEM 2cat” value [2, 3]?
A: 1

Q: What about the Fibril ([2]; FigS12 panel B) of the same substance?
A: 1

Q: And the “Fibril / Fibril Formation” value [2]?
A: 1

Q: What about the Fibril [2, 4] of the same substance?
A: 1

Q: What about the Fibril [2, 5] of the same substance?
A: 1

Q: With HHHHEIEIEIEI as the substance, how does the “Tht category (> 2 to blank = +)” value ([1]; Fig S10 panel D) read?
A: 1 (ThT. Cat is 1, if Rel. ThT >2)

Q: What about the “Tht category (> 2 to blank = +)” value ([1]; FigS12 panel A) of the same substance?
A: 1 (ThT. Cat is 1, if Rel. ThT >2)

Q: What about the “ThT Cat,” value ([1]; FigS12 panel B) of the same substance?
A: 1 (ThT. Cat is 1, if Rel. ThT >2)

Q: And the “ThT Cat,” value ([1]; ThT category, 1 if Rel. ThT >2)?
A: 1 (ThT. Cat is 1, if Rel. ThT >2)

Q: And the “ThT Cat.” value [1, 6]?
A: 1 (ThT. Cat is 1, if Rel. ThT >2)

Q: What about the “ThT Cat. / ThT-Fluorescence” value [1] of the same substance?
A: 1 (ThT. Cat is 1, if Rel. ThT >2)

Q: And the “TEM 2cat” value ([2]; Fig S10 panel D)?
A: 0

Q: And the “TEM 2cat” value [2, 3]?
A: 0

Q: And the Fibril ([2]; FigS12 panel B)?
A: 0

Q: And the “Fibril / Fibril Formation” value [2]?
A: 0

Q: What about the Fibril [2, 4] of the same substance?
A: 0

Q: And the Fibril [2, 5]?
A: 0

Q: What does the source list for NMWQKFKFQF?
A: Tht category (> 2 to blank = +) ([1]; Fig S10 panel D): 0 (ThT-inactive (N-Fold <2)); ThT Cat, ([1]; ThT category, 1 if Rel. ThT >2): 0 (ThT-inactive (N-Fold <2)); ThT Cat. ([1]; ThT category, 1 if Rel. ThT >2): 0 (ThT-inactive (N-Fold <2)); ThT Cat. / ThT-Fluorescence (categorical) [1]: 0 (ThT-inactive (N-Fold <2)); TEM 2cat ([2]; Fig S10 panel D): 1; Fibril / Fibril Formation [2]: 1; Fibril [2, 4]: 1; Fibril [2, 5]: 1; TEM 2cat [2, 7]: 1

Q: Which “Tht category (> 2 to blank = +)” value ([1]; Fig S10 panel D) does the source give for KIKIQINMWA here?
A: 0 (ThT-inactive (N-Fold <2))

Q: And the “ThT Cat,” value ([1]; ThT category, 1 if Rel. ThT >2)?
A: 0 (ThT-inactive (N-Fold <2))

Q: What about the “ThT Cat.” value [1, 6] of the same substance?
A: 0 (ThT-inactive (N-Fold <2))

Q: And the “ThT Cat. / ThT-Fluorescence” value [1]?
A: 0 (ThT-inactive (N-Fold <2))

Q: And the “TEM 2cat” value ([2]; Fig S10 panel D)?
A: 1

Q: What about the “Fibril / Fibril Formation” value [2] of the same substance?
A: 1

Q: And the Fibril [2, 4]?
A: 1

Q: What about the Fibril [2, 5] of the same substance?
A: 1

Q: What about the “TEM 2cat” value [2, 7] of the same substance?
A: 1

Q: Which “Tht category (> 2 to blank = +)” value ([1]; Fig S10 panel D) does the source give for KIKIQIAMWQ here?
A: 1 (ThT. Cat is 1, if Rel. ThT >2)

Q: What about the “ThT Cat,” value ([1]; ThT category, 1 if Rel. ThT >2) of the same substance?
A: 1 (ThT. Cat is 1, if Rel. ThT >2)

Q: And the “ThT Cat.” value [1, 6]?
A: 1 (ThT. Cat is 1, if Rel. ThT >2)

Q: What about the “ThT Cat. / ThT-Fluorescence” value [1] of the same substance?
A: 1 (ThT. Cat is 1, if Rel. ThT >2)

Q: What about the “TEM 2cat” value ([2]; Fig S10 panel D) of the same substance?
A: 1

Q: And the “Fibril / Fibril Formation” value [2]?
A: 1

Q: What about the Fibril [2, 4] of the same substance?
A: 1

Q: And the Fibril [2, 5]?
A: 1

Q: What about the “TEM 2cat” value [2, 7] of the same substance?
A: 1

Q: What does the source list for KIKQIIN?
A: Tht category (> 2 to blank = +) ([1]; Fig S10 panel D): 0 (ThT-inactive (N-Fold <2)); Tht category (> 2 to blank = +) ([1]; FigS12 panel A): 0 (ThT-inactive (N-Fold <2)); ThT Cat, ([1]; FigS12 panel B): 0 (ThT-inactive (N-Fold <2)); ThT Cat, ([1]; ThT category, 1 if Rel. ThT >2): 0 (ThT-inactive (N-Fold <2)); ThT Cat. [1, 6]: 0 (ThT-inactive (N-Fold <2)); ThT Cat. / ThT-Fluorescence (categorical) [1]: 0 (ThT-inactive (N-Fold <2)); TEM 2cat ([2]; Fig S10 panel D): 0; TEM 2cat [2, 3]: 0; Fibril ([2]; FigS12 panel B): 0; Fibril / Fibril Formation [2]: 0; Fibril [2, 4]: 0; Fibril [2, 5]: 0

Q: Which results are given for NMWQKAKAQA?
A: Tht category (> 2 to blank = +) ([1]; Fig S10 panel D): 1 (ThT. Cat is 1, if Rel. ThT >2); Tht category (> 2 to blank = +) ([1]; FigS12 panel A): 1 (ThT. Cat is 1, if Rel. ThT >2); ThT Cat, ([1]; FigS12 panel B): 1 (ThT. Cat is 1, if Rel. ThT >2); ThT Cat, ([1]; ThT category, 1 if Rel. ThT >2): 1 (ThT. Cat is 1, if Rel. ThT >2); ThT Cat. ([1]; ThT category, 1 if Rel. ThT >2): 1 (ThT. Cat is 1, if Rel. ThT >2); ThT Cat. / ThT-Fluorescence (categorical) [1]: 1 (ThT. Cat is 1, if Rel. ThT >2); TEM 2cat ([2]; Fig S10 panel D): 1; TEM 2cat [2, 3]: 1; Fibril ([2]; FigS12 panel B): 1; Fibril / Fibril Formation [2]: 1; Fibril [2, 4]: 1; Fibril [2, 5]: 1
